Source: PMC11067709 (Clinical and Translational Science, 2024)
Read-outs that look alike come from different tables or passages of the source.

What was measured:
[1] = Pharmacokinetic interaction study, fexuprazan and celecoxib; type: in vivo, healthy Korean male subjects; conditions: 5 days; for Tmax: T max,ss; for Tmax / T max,ss: median [minimum–maximum]; for Vd/F: V ss/F
CYP2D6 = conditions: CYP isoform 2D6; cited from earlier work
[2] = cited from earlier work; for intra‐subject variability for the PK parameter (C max): NSAIDs, ref previously reported
[3] = Safety and tolerability, adverse events, Cohort 2; type: in vivo, healthy Korean male subjects
[4] = Safety and tolerability, adverse events, Cohort 3; type: in vivo, healthy Korean male subjects
[5] = for AUCτ,ss / C max,ss / MR, metabolic ratio of fexuprazan (AUCτ,M14/AUCτ,fexuprazan) / V ss/F / t 1/2 / T max,ss: 5 days; for AUCτ,ss / C max,ss / MR, metabolic ratio of fexuprazan (AUCτ,M14/AUCτ,fexuprazan) / V ss/F / t 1/2: mean ± SD; for T max,ss: median [minimum–maximum]
[6] = cited from earlier work
[7] = for T max: median [minimum–maximum]
[8] = system: uptake or efflux transporters; conditions: cited from earlier work
[9] = Safety and tolerability, adverse events, Cohort 1; type: in vivo, healthy Korean male subjects
transporters = conditions: at the effective dose of 40 mg; cited from earlier work
CYP2C9 = conditions: CYP isoform 2C9; cited from earlier work
clinical = conditions: male, human, in vivo, po, 15 mg, T max,ss, 7 days, Arm E, median [minimum–maximum]
[10] = combination: fexuprazan 40 mg BID + naproxen 500 mg BID, Arm D
[11] = monotherapy: fexuprazan 40 mg BID, Arm D (Cohort 2)
[12] = combination: fexuprazan 40 mg BID + celecoxib 200 mg BID, Arm B, mean ± SD
[13] = monotherapy: fexuprazan 40 mg BID, Arm B (Cohort 1), mean ± SD
[14] = combination: fexuprazan 40 mg BID + meloxicam 15 mg QD, 7 days, Arm F, mean ± SD
[15] = monotherapy: fexuprazan 40 mg BID, 5 days, Arm F (Cohort 3), mean ± SD

Cc1ccc(-c2cc(C(F)(F)F)nn2-c2ccc(S(N)(=O)=O)cc2)cc1 [Celecoxib]
AUC ([1]; male, human, plasma, po, 200 mg, AUCτ,ss, combination: celecoxib 200 mg BID + fexuprazan 40 mg BID, Arm A, mean ± SD): 8110 ± 2550 ng·h/mL | Cmax ([1]; male, human, plasma, po, 200 mg, C max,ss, monotherapy: celecoxib 200 mg BID, Arm A, mean ± SD): 1080 ± 315 ng/mL | Tmax ([1]; male, human, plasma, po, 200 mg, combination: celecoxib 200 mg BID + fexuprazan 40 mg BID, Arm A): 3 h | Tmax ([1]; male, human, plasma, po, 200 mg, monotherapy: celecoxib 200 mg BID, Arm A): 2.5 h | Vd/F ([1]; male, human, plasma, po, 200 mg, combination: celecoxib 200 mg BID + fexuprazan 40 mg BID, Arm A, mean ± SD): 358 ± 126 L | Vd/F ([1]; male, human, plasma, po, 200 mg, monotherapy: celecoxib 200 mg BID, Arm A, mean ± SD): 416 ± 235 L | half-life ([1]; male, human, plasma, po, 200 mg, t 1/2, combination: celecoxib 200 mg BID + fexuprazan 40 mg BID, Arm A, mean ± SD): 9.5 ± 3.3 h | half-life ([1]; male, human, plasma, po, 200 mg, t 1/2, monotherapy: celecoxib 200 mg BID, Arm A, mean ± SD): 9.4 ± 5 h | inhibitory effect of NSAIDs on the CYP isoform (CYP2D6): moderate inhibitory effects | intra‐subject variability for the PK parameter (C max) [2]: 31.8% | elimination half‐life ([2]; celecoxib): 12.4 h

CNCc1cn(S(=O)(=O)c2cccc(F)c2)c(-c2ccc(F)cc2F)c1OC [Fexuprazan]
Summary of AEs: number of events [3]: six | percentage of subjects with AEs [3]: 33.3% | Summary of AEs: number of events [4]: eight | percentage of subjects with AEs [4]: 23.5% | AUCτ,ss [5, 10]: 728.7 ± 463.2 ng·h/mL | C max,ss [5, 10]: 89.2 ± 52.5 ng/mL | MR, metabolic ratio of fexuprazan (AUCτ,M14/AUCτ,fexuprazan) [5, 10]: 2.03 ± 1.25 | V ss/F [5, 10]: 808.9 ± 503.9 L | t 1/2 [5, 10]: 7.8 ± 1.1 h | T max,ss [5, 10]: 3.0 [1.5–4.0] h | increase in systemic exposure ([5]; fexuprazan co-administered with naproxen vs fexuprazan alone): approximately 20% | AUCτ,ss [5, 11]: 591.7 ± 271.7 ng·h/mL | C max,ss [5, 11]: 72.5 ± 37.0 ng/mL | MR, metabolic ratio of fexuprazan (AUCτ,M14/AUCτ,fexuprazan) [5, 11]: 2.65 ± 1.22 | V ss/F [5, 11]: 1028.6 ± 506.2 L | t 1/2 [5, 11]: 8.6 ± 0.9 h | T max,ss [5, 11]: 2.5 [1.0–6.0] h | AUCτ,ss [1, 12]: 570.2 ± 255.7 ng·h/mL | C max,ss [1, 12]: 71.3 ± 32.4 ng/mL | MR, metabolic ratio of fexuprazan (AUCτ,M14/AUCτ,fexuprazan) [1, 12]: 3.82 ± 2.72 | V ss/F [1, 12]: 1136.7 ± 730.7 L | t 1/2 [1, 12]: 8.5 ± 0.8 h | T max,ss ([1]; combination: fexuprazan 40 mg BID + celecoxib 200 mg BID, Arm B): 2.5 [1.0–6.0] h | AUCτ,ss [1, 13]: 555.3 ± 239.6 ng·h/mL | C max,ss [1, 13]: 65.6 ± 30.1 ng/mL | MR, metabolic ratio of fexuprazan (AUCτ,M14/AUCτ,fexuprazan) [1, 13]: 3.56 ± 2.50 | V ss/F [1, 13]: 1203.2 ± 788.6 L | t 1/2 [1, 13]: 8.7 ± 1.2 h | T max,ss ([1]; monotherapy: fexuprazan 40 mg BID, Arm B (Cohort 1)): 3.0 [1.0–6.0] h | multiple dose with established safety and tolerability ([6]; multiple doses for 7 days): up to 160 mg | single dose with established safety and tolerability ([6]; single dose): up to 320 mg | elimination half‐life ([2]; fexuprazan): 7.5 to 9.5 h | AUCτ,ss [7, 14]: 674.7 ± 379.2 ng·h/mL | C max,ss [7, 14]: 83.2 ± 46.2 ng/mL | V ss/F [7, 14]: 1427.7 ± 1984.4 L | t 1/2 [7, 14]: 8.6 ± 2.1 h | T max ([7]; combination: fexuprazan 40 mg BID + meloxicam 15 mg QD, 7 days, Arm F): 2.5 [1.5–4.0] h | AUCτ,ss [7, 15]: 728.3 ± 403.5 ng·h/mL | C max,ss [7, 15]: 82.8 ± 45.5 ng/mL | MR, metabolic ratio of fexuprazan (AUCτ,M14/AUCτ,fexuprazan) [7, 15]: 2.50 ± 1.64 | V ss/F [7, 15]: 1161.1 ± 1231.1 L | t 1/2 [7, 15]: 9.6 ± 2.2 h | T max ([7]; monotherapy: fexuprazan 40 mg BID, 5 days, Arm F (Cohort 3)): 2.5 [1.5–8.0] h | substrate for uptake or efflux transporters [8]: not a substrate | percentage of subjects with AEs [9]: 33.3% | potential for inhibitory effects on transporters (transporters): low potential

Cc1cnc(NC(=O)C2=C(O)c3ccccc3S(=O)(=O)N2C)s1 [Meloxicam]
inhibitory effect of NSAIDs on the CYP isoform (CYP2C9): relatively weak inhibitor | Tmax (clinical; combination: meloxicam 15 mg QD + fexuprazan 40 mg BID): 4.5 h | Tmax (clinical; monotherapy: meloxicam 15 mg QD): 5 h | intra‐subject variability for the PK parameter (C max) [2]: 9.8%

COc1ccc2cc([C@H](C)C(=O)O)ccc2c1 [Naproxen]
intra‐subject variability for the PK parameter (C max) [2]: 8.4%
